Bridge positions count the residues as written; N and C are the ends. Square brackets hold non-standard residues; d marks the D form. Peptide text beside a SMILES is read from it. * marks the point of attachment. DOTA = O=C(O)CN1CCN(CC(=O)O)CCN(CC(=O)*)CCN(CC(=O)O)CC1; Lys(Me3) = C[N+](C)(C)CCCC[C@H](N)C(=O)O; NMeQ = CN[C@@H](CCC(N)=O)C(=O)O; Tle = CC(C)(C)[C@H](N)C(=O)O; Nle = CCCC[C@H](N)C(=O)O; Ahx = NCCCCCC(=O)O

This is an account of results in US20250186541A1, “DLL3 TARGETING PEPTIDES AND CONSTRUCTS THEREOF” (MARIANA ONCOLOGY INC., priority 2023, published 2025).

For the experiment, the target named is T1, human DLL3 (Homo sapiens, UniProt Q9NYJ7).
T1 construct: biotin (biotinylated)
T1 sequence (Q9NYJ7 27-618): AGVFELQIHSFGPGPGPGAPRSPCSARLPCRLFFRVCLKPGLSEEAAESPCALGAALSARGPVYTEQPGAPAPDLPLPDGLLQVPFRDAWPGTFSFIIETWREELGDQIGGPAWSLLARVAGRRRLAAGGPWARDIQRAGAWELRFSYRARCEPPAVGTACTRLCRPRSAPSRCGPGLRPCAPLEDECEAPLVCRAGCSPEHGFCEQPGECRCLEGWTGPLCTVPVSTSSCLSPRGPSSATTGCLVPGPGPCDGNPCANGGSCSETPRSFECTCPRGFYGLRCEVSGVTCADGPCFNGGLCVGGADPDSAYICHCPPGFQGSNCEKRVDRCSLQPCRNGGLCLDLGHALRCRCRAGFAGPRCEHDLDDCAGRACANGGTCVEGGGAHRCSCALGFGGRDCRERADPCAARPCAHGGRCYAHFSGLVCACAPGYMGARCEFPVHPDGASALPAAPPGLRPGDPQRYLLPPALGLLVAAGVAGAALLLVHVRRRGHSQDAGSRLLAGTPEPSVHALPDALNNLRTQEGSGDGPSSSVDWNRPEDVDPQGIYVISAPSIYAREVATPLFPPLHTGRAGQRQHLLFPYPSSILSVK
As to the kind of experiment: Affinity determination by Surface Plasmon Resonance (SPR), Biacore, 1:1 binding model. The following applies: biotinylated human DLL3 on streptavidin chip, 25° C.; NB = nonbinding. The method, boiled down:
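SPR with biotinylated human DLL3 captured on a streptavidin chip, with a reference surface subtracted. Samples were injected at several concentrations at 100 μL/min in phosphate buffer with 137 mM NaCl, 2.7 mM KCl, 0.05% P20 and 2% DMSO. Kinetic and affinity constants came from a 1:1 binding fit.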
On the technique in general: In SPR one partner is held on a chip, and binding of the other changes the refractive index at the surface.
For `CCCC[C@@H]1NC(=O)[C@H](Cc2c[nH]c3ccccc23)NC(=O)[C@@H](NC(=O)[C@H](CC(=O)O)NC(=O)[C@H](CO)NC(=O)[C@H](CCSC)NC(C)=O)CSSC[C@@H](C(=O)N2CCC[C@H]2C(=O)N[C@@H](Cc2ccccc2)C(=O)N[C@@H](CC(=O)O)C(=O)N[C@H](CCCCNC(=O)CN2CCN(CC(=O)O)CCN(CC(=O)O)CCN(CC(=O)O)CC2)C(N)=O)NC(=O)[C@H](CC(N)=O)NC(=O)[C@H](Cc2c[nH]c3ccccc23)NC(=O)[C@H](CCC(N)=O)NC1=O` [compound 68, Ac-M-S-D-C(3)-W-(Nle)-Q-W-N-C(3)-P-F-D-D-Lys(DOTA)-CONH2] (Ac-MSDCW[Nle]QWNCPFD[dK](DOTA)-NH2; disulfide 4-10), the Kd (as a rule, the concentration at which binding is half-saturated) turned out to be 15.9 nM.
As for `CC(C)C[C@@H]1NC(=O)[C@H](Cc2c[nH]c3ccccc23)NC(=O)[C@@H](NC(=O)[C@H](CC(=O)O)NC(=O)[C@H](CO)NC(=O)CCCCCNC(=O)CN2CCN(CC(=O)O)CCN(CC(=O)O)CCN(CC(=O)O)CC2)CSSC[C@@H](C(=O)N2CCC[C@H]2C(=O)N[C@@H](Cc2ccccc2)C(=O)N[C@@H](CC(=O)O)C(N)=O)NC(=O)[C@H](CC(N)=O)NC(=O)[C@H](Cc2c[nH]c3ccccc23)NC(=O)[C@H](CCC(N)=O)NC1=O` [compound 72, DOTA-Ahx-S-D-C(3)-W-L-Q-W-N-C(3)-P-F-D-CONH2] ({DOTA-Ahx}-SDCWLQWNCPFD-NH2; disulfide 3-9), the figure is 11 nM; as for `CC(C)C[C@@H]1NC(=O)[C@H](Cc2c[nH]c3ccccc23)NC(=O)[C@@H](NC(=O)[C@H](CC(=O)O)NC(=O)[C@H](CO)NC(=O)CCCCCNC(=O)CN2CCN(CC(=O)O)CCN(CC(=O)O)CCN(CC(=O)O)CC2)CSSC[C@@H](C(=O)N2CCC[C@H]2C(=O)N[C@@H](Cc2ccccc2)C(=O)N[C@@H](CC(=O)O)C(=O)N[C@H](CCCCN)C(N)=O)NC(=O)[C@H](CC(N)=O)NC(=O)[C@H](Cc2c[nH]c3ccccc23)NC(=O)[C@H](CCC(N)=O)NC1=O` [compound 73, DOTA-Ahx-S-D-C(3)-W-L-Q-W-N-C(3)-P-F-D-(D-Lys)-NH2] ({DOTA-Ahx}-SDCWLQWNCPFD[dK]-NH2; disulfide 3-9), greater than 100 nM.
The molecule `CC(=O)NCCCCCC(=O)N[C@@H](CO)C(=O)N[C@@H](CC(=O)O)C(=O)N[C@H]1CSSC[C@@H](C(=O)N2CCC[C@H]2C(=O)N[C@@H](Cc2ccccc2)C(=O)N[C@@H](CC(=O)O)C(=O)N[C@H](CCCCNC(=O)CN2CCN(CC(=O)O)CCN(CC(=O)O)CCN(CC(=O)O)CC2)C(N)=O)NC(=O)[C@H](CC(N)=O)NC(=O)[C@H](Cc2c[nH]c3ccccc23)NC(=O)[C@H](CCC(N)=O)NC(=O)[C@H](CC(C)C)NC(=O)[C@H](Cc2c[nH]c3ccccc23)NC1=O` [compound 74, Ac-Ahx-S-D-C(3)-W-L-Q-W-N-C(3)-P-F-D-D-Lys(DOTA)-CONH2] (Ac-[Ahx]SDCWLQWNCPFD[dK](DOTA)-NH2; disulfide 4-10) gave a Kd of 9 nM.
As for `CC(=O)N[C@H](C(=O)N[C@@H](CO)C(=O)N[C@@H](CC(=O)O)C(=O)N[C@H]1CSSC[C@@H](C(=O)N2CCC[C@H]2C(=O)N[C@@H](Cc2ccccc2)C(=O)N[C@@H](CC(=O)O)C(=O)N[C@H](CCCCNC(=O)CN2CCN(CC(=O)O)CCN(CC(=O)O)CCN(CC(=O)O)CC2)C(N)=O)NC(=O)[C@H](CC(N)=O)NC(=O)[C@H](Cc2c[nH]c3ccccc23)NC(=O)[C@H](CCC(N)=O)NC(=O)[C@H](CC(C)C)NC(=O)[C@H](Cc2c[nH]c3ccccc23)NC1=O)C(C)(C)C` [compound 76, Ac-tBuGly-S-D-C(3)-W-L-Q-W-N-C(3)-P-F-D-D-Lys(DOTA)-CONH2] (Ac-[Tle]SDCWLQWNCPFD[dK](DOTA)-NH2; disulfide 4-10), the figure is 12 nM.
Take `CC(=O)N[C@@H](CO)C(=O)N[C@@H](CO)C(=O)N[C@@H](CC(=O)O)C(=O)N[C@H]1CSSC[C@@H](C(=O)N2CCC[C@H]2C(=O)N[C@@H](Cc2ccccc2)C(=O)N[C@@H](CC(=O)O)C(=O)N[C@H](CCCCNC(=O)CN2CCN(CC(=O)O)CCN(CC(=O)O)CCN(CC(=O)O)CC2)C(N)=O)NC(=O)[C@H](CC(N)=O)NC(=O)[C@H](Cc2c[nH]c3ccccc23)NC(=O)[C@H](CCC(N)=O)NC(=O)[C@H](CC(C)C)NC(=O)[C@H](Cc2c[nH]c3ccccc23)NC1=O` [compound 78, Ac-Ser-S-D-C(3)-W-L-Q-W-N-C(3)-P-F-D-D-Lys(DOTA)-CONH2] (Ac-SSDCWLQWNCPFD[dK](DOTA)-NH2; disulfide 4-10): the dissociation constant Kd was 16 nM.
As to `CCCC[C@H](NC(C)=O)C(=O)N[C@@H](CO)C(=O)N[C@@H](CC(=O)O)C(=O)N[C@H]1CSSC[C@@H](C(=O)N2CCC[C@H]2C(=O)N[C@@H](Cc2ccccc2)C(=O)N[C@@H](CC(=O)O)C(=O)N[C@H](CCCCNC(=O)CN2CCN(CC(=O)O)CCN(CC(=O)O)CCN(CC(=O)O)CC2)C(N)=O)NC(=O)[C@H](CC(N)=O)NC(=O)[C@H](Cc2c[nH]c3ccccc23)NC(=O)[C@H](CCC(N)=O)NC(=O)[C@H](CC(C)C)NC(=O)[C@H](Cc2c[nH]c3ccccc23)NC1=O` [compound 79, Ac-Nle-S-D-C(3)-W-L-Q-W-N-C(3)-P-F-D-D-Lys(DOTA)-CONH2] (Ac-[Nle]SDCWLQWNCPFD[dK](DOTA)-NH2; disulfide 4-10), the Kd is 9 nM.
Take `CC(=O)N[C@@H](Cc1ccccc1)C(=O)N[C@@H](CO)C(=O)N[C@@H](CC(=O)O)C(=O)N[C@H]1CSSC[C@@H](C(=O)N2CCC[C@H]2C(=O)N[C@@H](Cc2ccccc2)C(=O)N[C@@H](CC(=O)O)C(=O)N[C@H](CCCCNC(=O)CN2CCN(CC(=O)O)CCN(CC(=O)O)CCN(CC(=O)O)CC2)C(N)=O)NC(=O)[C@H](CC(N)=O)NC(=O)[C@H](Cc2c[nH]c3ccccc23)NC(=O)[C@H](CCC(N)=O)NC(=O)[C@H](CC(C)C)NC(=O)[C@H](Cc2c[nH]c3ccccc23)NC1=O` [compound 80, Ac-Phe-S-D-C(3)-W-L-Q-W-N-C(3)-P-F-D-D-Lys(DOTA)-CONH2] (Ac-FSDCWLQWNCPFD[dK](DOTA)-NH2; disulfide 4-10): the Kd is 10 nM.
As for `CC(=O)N[C@@H](CCC(=O)O)C(=O)N[C@@H](CO)C(=O)N[C@@H](CC(=O)O)C(=O)N[C@H]1CSSC[C@@H](C(=O)N2CCC[C@H]2C(=O)N[C@@H](Cc2ccccc2)C(=O)N[C@@H](CC(=O)O)C(=O)N[C@H](CCCCNC(=O)CN2CCN(CC(=O)O)CCN(CC(=O)O)CCN(CC(=O)O)CC2)C(N)=O)NC(=O)[C@H](CC(N)=O)NC(=O)[C@H](Cc2c[nH]c3ccccc23)NC(=O)[C@H](CCC(N)=O)NC(=O)[C@H](CC(C)C)NC(=O)[C@H](Cc2c[nH]c3ccccc23)NC1=O` [compound 81, Ac-Glu-S-D-C(3)-W-L-Q-W-N-C(3)-P-F-D-D-Lys(DOTA)-CONH2] (Ac-ESDCWLQWNCPFD[dK](DOTA)-NH2; disulfide 4-10), the figure is 12.3 nM.
To `CC(=O)N[C@@H](CCCC[N+](C)(C)C)C(=O)N[C@@H](CO)C(=O)N[C@@H](CC(=O)O)C(=O)N[C@H]1CSSC[C@@H](C(=O)N2CCC[C@H]2C(=O)N[C@@H](Cc2ccccc2)C(=O)N[C@@H](CC(=O)O)C(=O)N[C@H](CCCCNC(=O)CN2CCN(CC(=O)O)CCN(CC(=O)O)CCN(CC(=O)O)CC2)C(N)=O)NC(=O)[C@H](CC(N)=O)NC(=O)[C@H](Cc2c[nH]c3ccccc23)NC(=O)[C@H](CCC(N)=O)NC(=O)[C@H](CC(C)C)NC(=O)[C@H](Cc2c[nH]c3ccccc23)NC1=O` [compound 85, Ac-Lys(Me)3-S-D-C(3)-W-L-Q-W-N-C(3)-P-F-D-D-Lys(DOTA)-CONH2] (Ac-[Lys(Me3)]SDCWLQWNCPFD[dK](DOTA)-NH2; disulfide 4-10) belongs 14 nM.
For `CC(=O)N[C@@H](CO)C(=O)N[C@@H](CC(=O)O)C(=O)N[C@H]1CSSC[C@@H](C(=O)N2CCC[C@H]2C(=O)N[C@@H](Cc2ccccc2)C(=O)N[C@@H](CC(=O)O)C(=O)N[C@@H](CCCCNC(=O)CN2CCN(CC(=O)O)CCN(CC(=O)O)CCN(CC(=O)O)CC2)C(N)=O)NC(=O)[C@H](CC(N)=O)NC(=O)[C@H](Cc2c[nH]c3ccccc23)NC(=O)[C@H](CCC(N)=O)NC(=O)[C@H](CC(C)C)NC(=O)[C@H](Cc2c[nH]c3ccccc23)NC1=O` [compound 86, Ac-S-D-C(3)-W-L-Q-W-N-C(3)-P-F-D-[L-Lys(DOTA)]-NH2] (Ac-SDCWLQWNCPFDK(DOTA)-NH2; disulfide 3-9), the Kd worked out at 12.3 nM.
As for `CC(C)C[C@@H]1NC(=O)[C@H](Cc2c[nH]c3ccccc23)NC(=O)[C@@H](NC(=O)[C@H](CC(=O)O)NC(=O)[C@H](CO)NC(=O)CCCCCNC(=O)CN2CCN(CC(=O)O)CCN(CC(=O)O)CCN(CC(=O)O)CC2)CSSC[C@@H](C(=O)N2CCC[C@H]2C(=O)N[C@@H](Cc2ccccc2)C(=O)N[C@@H](CC(=O)O)C(N)=O)NC(=O)[C@H](CC(N)=O)NC(=O)[C@H](Cc2c[nH]c3ccccc23)NC(=O)[C@H](CCC(N)=O)N(C)C1=O` [compound 93, DOTA-Ahx-S-D-C(3)-W-L-(NMe-Gln)-W-N-C(3)-P-F-D-CONH2] ({DOTA-Ahx}-SDCWL[NMeQ]WNCPFD-NH2; disulfide 3-9), the figure is greater than 100 nM.
